Active and inactive are the calls of the source. The calls are words filed in the database; no cut-off is given here.
What was measured:
Glycine max [1] = assay: Inhibition of soybean 15-LOX at 10 uM using linoleic acid as substrate relative to control
Glycine max [2] = assay: Inhibition of soybean 15-LOX assessed as Vmax for substrate using linoleic acid as substrate by Lineweaver-Burk plot analysis
[3] = Inhibition of soybean 15-LOX using linoleic acid as substrate; parameters: species or system Glycine max
Glycine max [4] = assay: Inhibition of soybean 15-LOX assessed as Km for substrate using linoleic acid as substrate by Lineweaver-Burk plot analysis
[5] = Competitive inhibition of soybean 15-LOX using linoleic acid as substrate by Lineweaver-Burk plot analysis; parameters: species or system Glycine max
Glycine max [6] = assay: Potency index, ratio of 4-methyl-2-(4-methylpiperazinyl)-pyrimido[4,5b]benzothiazine IC50 to compound IC50 for soybean 15-LOX
[7] = Antioxidant activity assessed as ferric ion reducing activity by measuring Fe2+ levels using Fe3+-TPTZ after 40 mins by FRAP assay; assay type: functional
[8] = Antioxidant activity assessed as cupric ion reducing activity after 30 mins by CUPRAC assay; assay type: functional
[9] = biological target: T1, Polyunsaturated fatty acid lipoxygenase ALOX15 (Homo sapiens, UniProt P16050); assay: Inhibition of 15-LOX in human primary polymorphonuclear leukocytes
T1 sequence (P16050 whole entry): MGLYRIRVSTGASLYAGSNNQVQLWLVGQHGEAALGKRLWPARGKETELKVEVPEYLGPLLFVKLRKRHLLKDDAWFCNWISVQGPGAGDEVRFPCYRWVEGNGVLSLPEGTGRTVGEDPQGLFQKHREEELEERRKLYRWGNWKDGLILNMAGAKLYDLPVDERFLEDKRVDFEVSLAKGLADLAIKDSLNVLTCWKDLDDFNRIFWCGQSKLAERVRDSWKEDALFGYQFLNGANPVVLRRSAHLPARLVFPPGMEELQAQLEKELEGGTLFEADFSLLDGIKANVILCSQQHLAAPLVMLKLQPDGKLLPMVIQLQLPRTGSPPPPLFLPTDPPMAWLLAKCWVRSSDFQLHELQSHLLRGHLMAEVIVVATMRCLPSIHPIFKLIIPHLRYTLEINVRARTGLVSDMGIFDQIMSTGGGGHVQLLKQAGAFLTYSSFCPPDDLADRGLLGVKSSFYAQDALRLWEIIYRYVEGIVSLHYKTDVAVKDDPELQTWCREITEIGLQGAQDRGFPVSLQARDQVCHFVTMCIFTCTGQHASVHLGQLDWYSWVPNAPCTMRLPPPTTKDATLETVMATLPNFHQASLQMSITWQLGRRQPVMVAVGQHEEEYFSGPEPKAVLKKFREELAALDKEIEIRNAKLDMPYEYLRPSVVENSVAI

[10] = biological target: T1, Polyunsaturated fatty acid lipoxygenase ALOX15; assay: Inhibition of thapsigargin-stimulated 15-LOX in human primary polymorphonuclear leukocytes using arachidonic acid as substrate preincubated for 5 mins followed by thapsigargin stimulation for 5 mins by RP-HPLC method

NS(=O)(=O)c1ccc(NNC(=O)c2ccccc2)cc1
inhibition (Glycine max [1]): 10%

COc1ccc(/N=N/C(=O)c2ccccc2)cc1
inhibition (Glycine max [1]): 19%

O=C(/N=N/c1ccc(Br)cc1)c1ccccc1
inhibition (Glycine max [1]): 44%

O=C(NNc1ccc([N+](=O)[O-])cc1)c1ccccc1
inhibition (Glycine max [1]): 17%

N#Cc1ccc(/N=N/C(=O)c2ccccc2)cc1
Vmax (Glycine max [2]): 0.57 µM/s
IC50 [3]: 9.78 µM
inhibition (Glycine max [1]): 80%
Km (Glycine max [4]): 140 µM
Ki [5]: 3890 nM

O=C(/N=N/c1ccccc1)c1ccccc1
IC50 [3]: 6.97 µM
inhibition (Glycine max [1]): 87%

Cc1ccc(NNC(=O)c2ccccc2)cc1
Ratio IC50 (Glycine max [6]): 3.4
Vmax (Glycine max [2]): 0.46 µM/s
IC50 [3]: 5.35 µM
Activity [7]: Active
inhibition (Glycine max [1]): 93%
Km (Glycine max [4]): 89.6 µM
Ki [5]: 810 nM

O=C(/N=N/c1ccc([N+](=O)[O-])cc1)c1ccccc1
inhibition (Glycine max [1]): 34%

COc1ccc(NNC(=O)c2ccccc2)cc1
Activity [7]: Active
inhibition (Glycine max [1]): 73%

O=C(NNc1ccccc1)c1ccccc1
Activity [7]: Active
inhibition (Glycine max [1]): 33%
Activity [8]: Active

Cc1ccc(/N=N/C(=O)c2ccccc2)cc1
inhibition (Glycine max [1]): 44%

O=C(NNc1ccc(Br)cc1)c1ccccc1
Activity [7]: Active
inhibition (Glycine max [1]): 28%

N#Cc1ccc(NNC(=O)c2ccccc2)cc1
inhibition (Glycine max [1]): 9%

CC(c1cc2ccccc2s1)N(O)C(N)=O (stereo not given) [ZILEUTON]
IC50 [9]: 400 nM

O=C(/C=C/c1ccc(O)c(O)c1)OCCc1ccccc1 [CAFFEIC ACID PHENETHYL ESTER]
IC50 [10]: 130 nM
